Values of other authors as cited in PMC2765482 (Journal of medicinal chemistry, 2009).
Marks after values point to notes of the source that are not given here.

Experiments:
[1] = tested on: vancomycin-sensitive bacteria and vancomycin-resistant Enterococci (VRE); conditions: against vancomycin-sensitive bacteria and VRE; ref [9]
[2] = versus vancomycin; ref [11]
[3] = tested on: Enterocococci bacterial strains, VanA and VanB; conditions: VanA and VanB resistant versus sensitive; ref [1d,k]
[4] = tested on: Staphylococcus aureus strain ATCC 25923 (vancomycin-sensitive); conditions: vancomycin-sensitive strain ATCC 25923; ref [18b] (text: ref [4],[18])
[5] = tested on: Enterococcus faecalis strain BM4166 (vancomycin-resistant, VanA); conditions: ref [18b]
[6] = tested on: N,N′-Ac2-L-Lys-D-Ala-D-Lac (3); conditions: for Association Constants 3 (Ka): ligand N,N′-Ac2-L-Lys-D-Ala-D-Lac, ref [4]
[7] = tested on: N,N′-Ac2-L-Lys-D-Ala-D-Ala (2); conditions: ligand N,N′-Ac2-L-Lys-D-Ala-D-Ala; ref [4]

## Chlorobiphenyl vancomycin
[1]
  more active than vancomycin: ca. 100 fold

## N-demethylvancomycin
[2]
  enhancement of antimicrobial properties: 2 fold

## Vancomycin [Compound 1]
[3]
  drop in antimicrobial activity: 1000 fold
[4]
  MIC S. aureus: 1.25 ^e µg/mL
[5]
  MIC E. faecalis: 2000 ^e µg/mL
[6]; D-Ala-D-Lac versus D-Ala-D-Ala ligand, ref [1d,k]
  reduction of affinity for the ligand on D-Ala to D-Lac modification (NH→O): 1000 fold
[6]
  Association Constants 3 (Ka): 1.8 ^f ×10^2 M^−1
[7]
  Association Constants 2 (Ka): 2.0 ^f ×10^5 M^−1

## vancomycin aglycon [Compound 5]
[4]
  MIC S. aureus: 0.625 ^e µg/mL
[5]
  MIC E. faecalis: 640 ^e µg/mL
[6]
  Association Constants 3 (Ka): 1.2 ^f ×10^2 M^−1
[7]
  Association Constants 2 (Ka): 1.7 ^f ×10^5 M^−1
